Consider 2 molecules from publication PMC3516570, “The GM2 Glycan Serves as a Functional Coreceptor for Serotype 1 Reovirus” (PLoS Pathogens, 2012).

In one series the target is T1, T1L σ1long (Mammalian orthoreovirus 1 Lang, UniProt P04506).
T1 construct: gene S1; residues 261-470, three C-terminal beta-spirals plus head; E. coli; trimeric GCN4 zipper and His6-tag removed by trypsin (kept for glycan array); trimer
The series is described as follows: X-ray crystal structure ([…] Å); also STD NMR. The series is classed as binding. As to conditions: crystal soak with 20 mM glycan; same site as GM2 glycan; STD NMR pH 7.4, 283 K.

Series [1] deals with the molecule itself. Kind of series: crystal structure; crystals of cleaved σ1_(long) grown in 0.1 M Na cacodylate (pH 6.0–6.6), 1.2–1.5 M (NH4)2SO4 at 4°C, soaked with 20 mM GM2 or GM3 oligosaccharide; space group P3_(2)21; 3.6 Å (GM2) and 3.5 Å (GM3).

Consider `CC(=O)N[C@H]1[C@H]([C@H](O)[C@H](O)CO)O[C@@](O[C@H]2[C@@H](O)[C@@H](CO)O[C@@H](O[C@H]3[C@H](O)[C@@H](O)C(O)O[C@@H]3CO)[C@@H]2O)(C(=O)O)C[C@@H]1O` (some centres unmarked) [GM3 glycan], for which the “X-ray crystal structure (3.5 Å); also STD NMR” value at T1L σ1long was 4GU4 (T1L σ1-GM3 glycan complex).

B1: reovirus type 1 Lang (T1L) σ1, construct σ1_(long) (amino acids 261–470), GCN4 domain and His6-tag removed (domain or fragment)
chain: LESAKIDSVLPPLTVREASGVRTLSFGYDTSDFTIINSVLSLRSRLTLPTYRYPLELDTANNRVQVADRFGMRTGTWTGQLQYQHPQLSWRANVTLNLMKVDDWLVLSFSQMTTNSIMADGKFVINFVSGLSSGWQTGDTEPSSTIDPLSTTFAAVQFLNNGQRIDAFRIMGVSEWTDGELEIKNYGGTYTGHTQVYWAPWTIMYPCNVR
notes: Made as His6-GCN4(trimeric)-σ1(261–470) in pQE-80L; Crystals were soaked with GM2 or GM3 glycan; also called cleaved σ1_(long); σ1 attachment protein; not shown: His6, N-terminal, cleaved; GCN4 trimeric leucine zipper, N-terminal, cleaved
In general, stoichiometry N refers to a count of units in the complex or per binding partner. Regarding B1, the “stoichiometry N” value in series [1] was determined as 3.
